From PMC5218480 (PLoS ONE, 2017)

Test system: MV-4-11 cells
Assay: Gene expression microarray analysis (Affymetrix PrimeView) and GSEA
Format: cell-based, human
Parameters: RFU PODN (11730768_x_at) / Fold change /veh PODN (11730768_x_at) / RFU LINC00158 (11744669_a_at) / Fold change /veh LINC00158 (11744669_a_at) / RFU DUSP10 (11751237_a_at) / Fold change /veh DUSP10 (11751237_a_at) / RFU ID3 (11757404_x_at) / Fold change /veh ID3 (11757404_x_at) / RFU PLEKHG5 (11737974_s_at) / Fold change /veh PLEKHG5 (11737974_s_at) / RFU LRRC4B (11730491_at) / Fold change /veh LRRC4B (11730491_at) / RFU GIMAP4 (11747438_a_at) / Fold change /veh GIMAP4 (11747438_a_at) / RFU KRT8 (11758183_x_at) / Fold change /veh KRT8 (11758183_x_at) / RFU CNN1 (11734310_a_at) / Fold change /veh CNN1 (11734310_a_at) / RFU VPS37D (11726825_at) / Fold change /veh VPS37D (11726825_at) / RFU C10orf10 (11716522_x_at) / Fold change /veh C10orf10 (11716522_x_at) / RFU KIR2DL2 /// KIR2DL4 /// KIR2DL5A /// KIR2DL5B /// KIR2DS1 /// KIR2DS2 /// KIR2DS3 /// KIR2DS4 /// KIR3DL3 /// KIR3DL3 /// KIR3DS1 (11738374_at) / Fold change /veh KIR2DL2 /// KIR2DL4 /// KIR2DL5A /// KIR2DL5B /// KIR2DS1 /// KIR2DS2 /// KIR2DS3 /// KIR2DS4 /// KIR3DL3 /// KIR3DL3 /// KIR3DS1 (11738374_at) / RFU C1QL1 (11718748_at) / Fold change /veh C1QL1 (11718748_at) / RFU TMPRSS4 (11747572_a_at) / Fold change /veh TMPRSS4 (11747572_a_at) / RFU HAMP (11756126_x_at) / Fold change /veh HAMP (11756126_x_at) / RFU RNFT2 (11725882_a_at) / Fold change /veh RNFT2 (11725882_a_at) / RFU NR4A2 (11747474_a_at) / Fold change /veh NR4A2 (11747474_a_at) / RFU ABCC12 (11746883_a_at) / Fold change /veh ABCC12 (11746883_a_at) / RFU TMEM136 (11760407_x_at) / Fold change /veh TMEM136 (11760407_x_at) / RFU CLDN22 /// WWC2 (11732394_at) / Fold change /veh CLDN22 /// WWC2 (11732394_at) / RFU HLA-DPB1 (11760878_x_at) / Fold change /veh HLA-DPB1 (11760878_x_at) / RFU SPINT1 (11716480_a_at) / Fold change /veh SPINT1 (11716480_a_at) / RFU GAP43 (11754022_s_at) / Fold change /veh GAP43 (11754022_s_at) / RFU A4GNT (11735810_at) / Fold change /veh A4GNT (11735810_at) / RFU PRB3 (11715151_x_at) / Fold change /veh PRB3 (11715151_x_at) / RFU TUBB4B (11761932_at) / Fold change /veh TUBB4B (11761932_at) / RFU CAPN14 (11732068_a_at) / Fold change /veh CAPN14 (11732068_a_at) / RFU TMCC2 (11721928_a_at) / Fold change /veh TMCC2 (11721928_a_at) / RFU IRGQ (11745062_a_at) / Fold change /veh IRGQ (11745062_a_at) / RFU FAM174B (11720279_a_at) / Fold change /veh FAM174B (11720279_a_at) / RFU TMPRSS4 (11748680_a_at) / Fold change /veh TMPRSS4 (11748680_a_at) / RFU FAM212B (11763350_a_at) / Fold change /veh FAM212B (11763350_a_at) / RFU PLEKHG5 (11743358_a_at) / Fold change /veh PLEKHG5 (11743358_a_at) / RFU ZSCAN30 (11745921_a_at) / Fold change /veh ZSCAN30 (11745921_a_at) / RFU CMKLR1 (11741424_a_at) / Fold change /veh CMKLR1 (11741424_a_at) / RFU LOC101060620 /// MAPK8IP1 (11723275_at) / Fold change /veh LOC101060620 /// MAPK8IP1 (11723275_at) / RFU SPTSSB (11747773_x_at) / Fold change /veh SPTSSB (11747773_x_at) / RFU PRSS12 (11739890_at) / Fold change /veh PRSS12 (11739890_at) / RFU BIN1 (11741810_x_at) / Fold change /veh BIN1 (11741810_x_at) / RFU WNT11 (11732464_a_at) / Fold change /veh WNT11 (11732464_a_at) / RFU C10orf10 (11716521_a_at) / Fold change /veh C10orf10 (11716521_a_at) / RFU C5orf56 (11738089_at) / Fold change /veh C5orf56 (11738089_at) / RFU CYB561 (11721691_x_at) / Fold change /veh CYB561 (11721691_x_at) / RFU ANKRD19P (11752326_a_at) / Fold change /veh ANKRD19P (11752326_a_at) / RFU OR2T12 /// OR2T33 /// OR2T8 (11738714_s_at) / Fold change /veh OR2T12 /// OR2T33 /// OR2T8 (11738714_s_at) / RFU VCAN (11748164_a_at) / Fold change /veh VCAN (11748164_a_at) / RFU JSRP1 (11732532_at) / Fold change /veh JSRP1 (11732532_at) / RFU KRTAP10-11 (11738290_x_at) / Fold change /veh KRTAP10-11 (11738290_x_at) / RFU MYO3A (11730013_a_at) / Fold change /veh MYO3A (11730013_a_at) / RFU EBF3 (11725865_a_at) / Fold change /veh EBF3 (11725865_a_at) / RFU CAMK2N1 (11719241_x_at) / Fold change /veh CAMK2N1 (11719241_x_at) / RFU C5orf56 (11738088_a_at) / Fold change /veh C5orf56 (11738088_a_at) / RFU OLFML3 (11715873_a_at) / Fold change /veh OLFML3 (11715873_a_at) / RFU LOC100653217 /// NTM (11731650_a_at) / Fold change /veh LOC100653217 /// NTM (11731650_a_at) / RFU MAPK11 (11762145_a_at) / Fold change /veh MAPK11 (11762145_a_at) / RFU FIZ1 (11724087_x_at) / Fold change /veh FIZ1 (11724087_x_at) / RFU OASL (11726364_x_at) / Fold change /veh OASL (11726364_x_at) / RFU SOX15 (11748057_x_at) / Fold change /veh SOX15 (11748057_x_at) / RFU CD79A (11719716_a_at) / Fold change /veh CD79A (11719716_a_at) / RFU HIST1H1D (11736915_at) / Fold change /veh HIST1H1D (11736915_at) / RFU CASKIN2 (11723855_a_at) / Fold change /veh CASKIN2 (11723855_a_at) / RFU LOC730098 (11760151_x_at) / Fold change /veh LOC730098 (11760151_x_at) / RFU OR4N2 (11742367_at) / Fold change /veh OR4N2 (11742367_at) / RFU PRRT2 (11749266_a_at) / Fold change /veh PRRT2 (11749266_a_at) / RFU SNX32 (11753110_a_at) / Fold change /veh SNX32 (11753110_a_at) / RFU CDHR5 (11726645_a_at) / Fold change /veh CDHR5 (11726645_a_at) / RFU RCAN1 (11760418_a_at) / Fold change /veh RCAN1 (11760418_a_at) / RFU FAM167A (11723789_a_at) / Fold change /veh FAM167A (11723789_a_at) / RFU FAM26E (11764081_at) / Fold change /veh FAM26E (11764081_at) / RFU ISYNA1 (11749810_s_at) / Fold change /veh ISYNA1 (11749810_s_at) / RFU ACY1 (11761880_at) / Fold change /veh ACY1 (11761880_at) / RFU 11764098_at / Fold change /veh 11764098_at / RFU SAMD14 (11745864_x_at) / Fold change /veh SAMD14 (11745864_x_at) / RFU NPB (11741838_a_at) / Fold change /veh NPB (11741838_a_at) / RFU TMPRSS6 (11731388_a_at) / Fold change /veh TMPRSS6 (11731388_a_at) / RFU KRTAP10-2 (11738614_at) / Fold change /veh KRTAP10-2 (11738614_at) / RFU ARHGAP8 /// PRR5-ARHGAP8 (11727945_x_at) / Fold change /veh ARHGAP8 /// PRR5-ARHGAP8 (11727945_x_at) / RFU KRTAP5-7 /// NADSYN1 (11734609_at) / Fold change /veh KRTAP5-7 /// NADSYN1 (11734609_at) / RFU RASL12 (11751679_a_at) / Fold change /veh RASL12 (11751679_a_at) / RFU CDKN2B (11736163_a_at) / Fold change /veh CDKN2B (11736163_a_at) / RFU PRF1 (11729649_at) / Fold change /veh PRF1 (11729649_at) / RFU, ZNF638 /// ZNF638-IT1 / Fold change vs veh, ZNF638 /// ZNF638-IT1 / RFU, PANK3 / Fold change vs veh, PANK3 / RFU, SH3YL1 / Fold change vs veh, SH3YL1 / RFU, ZEB2 / Fold change vs veh, ZEB2 / RFU, NRIP1 / Fold change vs veh, NRIP1 / RFU, PTTG1IP / Fold change vs veh, PTTG1IP / RFU, CAPN2 / Fold change vs veh, CAPN2 / RFU, MED14 / Fold change vs veh, MED14 / RFU, SNORA58 / Fold change vs veh, SNORA58 / RFU, C1orf63 / Fold change vs veh, C1orf63 / RFU, LRRFIP1 / Fold change vs veh, LRRFIP1 / RFU, NDUFAF7 / Fold change vs veh, NDUFAF7 / RFU, SLC12A2 / Fold change vs veh, SLC12A2 / RFU, IBTK / Fold change vs veh, IBTK / RFU, ESF1 / Fold change vs veh, ESF1 / Fold change vs veh, TMEM50B / RFU, TAOK1 / Fold change vs veh, TAOK1 / RFU, ACBD3 / Fold change vs veh, ACBD3 / RFU, TMA16 / Fold change vs veh, TMA16 / RFU, RWDD3 / Fold change vs veh, RWDD3 / RFU, BCAT1 / Fold change vs veh, BCAT1 / RFU, EDEM3 / Fold change vs veh, EDEM3 / RFU, TMEM33 / Fold change vs veh, TMEM33 / RFU, WDR75 / Fold change vs veh, WDR75 / RFU, AHCTF1 / Fold change vs veh, AHCTF1 / RFU, TFRC / Fold change vs veh, TFRC / RFU, ZDHHC17 / Fold change vs veh, ZDHHC17 / RFU, NOM1 / Fold change vs veh, NOM1 / RFU, ARL8B / Fold change vs veh, ARL8B / RFU, ZBTB11 / Fold change vs veh, ZBTB11 / RFU, TAMM41 / Fold change vs veh, TAMM41 / RFU, KIAA1704 /// LOC100996395 / Fold change vs veh, KIAA1704 /// LOC100996395 / RFU, ING1 / Fold change vs veh, ING1 / RFU, TRMT61B / Fold change vs veh, TRMT61B / RFU, FUBP3 / Fold change vs veh, FUBP3 / RFU, TP53 / Fold change vs veh, TP53 / RFU, TNKS2 / Fold change vs veh, TNKS2 / RFU, ZFP14 / Fold change vs veh, ZFP14 / RFU, ACTR2 / Fold change vs veh, ACTR2 / RFU, PPP3R1 / Fold change vs veh, PPP3R1 / RFU, PIK3R1 / Fold change vs veh, PIK3R1 / RFU, HNRNPA1 / Fold change vs veh, HNRNPA1 / RFU, RNF170 / Fold change vs veh, RNF170 / RFU, ZNF28 / Fold change vs veh, ZNF28 / RFU, RNGTT / Fold change vs veh, RNGTT / RFU, OGT / Fold change vs veh, OGT / RFU, BRD1 / Fold change vs veh, BRD1 / RFU, MARS / Fold change vs veh, MARS / RFU, ZNF655 / Fold change vs veh, ZNF655 / RFU, FAHD1 / Fold change vs veh, FAHD1 / RFU, BDP1 / Fold change vs veh, BDP1 / RFU, LRRCC1 / Fold change vs veh, LRRCC1 / RFU, ARID1A / Fold change vs veh, ARID1A / RFU, ZNF146 / Fold change vs veh, ZNF146 / RFU, ZNF330 / Fold change vs veh, ZNF330 / RFU, GPN3 / Fold change vs veh, GPN3 / RFU, C9orf123 / Fold change vs veh, C9orf123 / RFU, N4BP2L2 / Fold change vs veh, N4BP2L2 / RFU, ARFIP1 / Fold change vs veh, ARFIP1 / RFU, FAM179B / Fold change vs veh, FAM179B / RFU, BCL10 / Fold change vs veh, BCL10 / RFU, UHRF1BP1L / Fold change vs veh, UHRF1BP1L / RFU, BET1 / Fold change vs veh, BET1 / RFU, CNOT2 / Fold change vs veh, CNOT2 / RFU, ZNF268 / Fold change vs veh, ZNF268 / Fold change vs veh, ZNF507 / RFU, DGCR2 / Fold change vs veh, DGCR2 / RFU, WDSUB1 / Fold change vs veh, WDSUB1 / Fold change vs veh, HSP90B1 /// MIR3652 / RFU, ADSS / Fold change vs veh, ADSS / RFU, GK / Fold change vs veh, GK / RFU, ZNF148 / Fold change vs veh, ZNF148 / RFU, TAF9 / Fold change vs veh, TAF9 / RFU, SLC1A5 / Fold change vs veh, SLC1A5 / RFU, SLMO2 / Fold change vs veh, SLMO2 / RFU, ABCC4 / Fold change vs veh, ABCC4 / RFU, LOC101060439 /// RAP1B / Fold change vs veh, LOC101060439 /// RAP1B / RFU, RFX7 / Fold change vs veh, RFX7 / RFU, GTPBP10 / Fold change vs veh, GTPBP10 / RFU, CNEP1R1 / Fold change vs veh, CNEP1R1 / RFU, BIVM-ERCC5 /// ERCC5 / Fold change vs veh, BIVM-ERCC5 /// ERCC5 / RFU, ILF3 / Fold change vs veh, ILF3 / RFU 11762660_at / Fold change /veh 11762660_at / RFU VCAN (11757783_s_at) / Fold change /veh VCAN (11757783_s_at) / RFU DDX43 (11728927_at) / Fold change /veh DDX43 (11728927_at) / RFU KRT8 (11758188_x_at) / Fold change /veh KRT8 (11758188_x_at) / RFU NKD1 (11759106_at) / Fold change /veh NKD1 (11759106_at) / RFU SRD5A1 (11742802_a_at) / Fold change /veh SRD5A1 (11742802_a_at) / RFU TPSAB1 /// TPSB2 (11721975_s_at) / Fold change /veh TPSAB1 /// TPSB2 (11721975_s_at) / RFU GSTM3 (11746129_a_at) / Fold change /veh GSTM3 (11746129_a_at) / RFU IL23R (11737362_x_at) / Fold change /veh IL23R (11737362_x_at) / RFU TMEM51 (11727254_a_at) / Fold change /veh TMEM51 (11727254_a_at) / RFU PIWIL2 (11732686_x_at) / Fold change /veh PIWIL2 (11732686_x_at) / RFU ORM1 (11744905_x_at) / Fold change /veh ORM1 (11744905_x_at) / RFU CCDC152 (11743942_at) / Fold change /veh CCDC152 (11743942_at) / RFU ECM1 (11717891_a_at) / Fold change /veh ECM1 (11717891_a_at) / RFU IL23R (11748794_a_at) / Fold change /veh IL23R (11748794_a_at) / RFU TNFAIP8L3 (11732012_x_at) / Fold change /veh TNFAIP8L3 (11732012_x_at) / RFU MBOAT4 (11741988_at) / Fold change /veh MBOAT4 (11741988_at) / RFU 11764193_at / Fold change /veh 11764193_at / RFU TMEM53 (11763286_at) / Fold change /veh TMEM53 (11763286_at) / RFU MAGEB2 (11727129_at) / Fold change /veh MAGEB2 (11727129_at) / RFU TMEM200A (11744735_a_at) / Fold change /veh TMEM200A (11744735_a_at) / RFU CCDC152 (11751479_a_at) / Fold change /veh CCDC152 (11751479_a_at) / RFU FAM211A (11726209_a_at) / Fold change /veh FAM211A (11726209_a_at) / RFU RGS16 (11746705_a_at) / Fold change /veh RGS16 (11746705_a_at) / RFU VCAN (11755009_s_at) / Fold change /veh VCAN (11755009_s_at) / RFU RHOB (11743442_s_at) / Fold change /veh RHOB (11743442_s_at) / RFU RGS16 (11720943_a_at) / Fold change /veh RGS16 (11720943_a_at) / RFU RGS16 (11720944_at) / Fold change /veh RGS16 (11720944_at) / RFU, VPS4B / Fold change vs veh, VPS4B / RFU, CREB1 / Fold change vs veh, CREB1 / RFU, DNAJC13 / Fold change vs veh, DNAJC13 / RFU, GNAQ / Fold change vs veh, GNAQ / RFU, CDK5R1 / Fold change vs veh, CDK5R1 / RFU, ZRANB3 / Fold change vs veh, ZRANB3 / RFU, CUL4A / Fold change vs veh, CUL4A / RFU, CCNY / Fold change vs veh, CCNY / RFU, UFL1 / Fold change vs veh, UFL1 / RFU, COG3 / Fold change vs veh, COG3 / RFU, DIAPH2 / Fold change vs veh, DIAPH2 / RFU, SKA2 / Fold change vs veh, SKA2 / RFU, AFF3 / Fold change vs veh, AFF3 / RFU, LMF1 / Fold change vs veh, LMF1 / RFU, IPO11 / Fold change vs veh, IPO11 / RFU, DFFB / Fold change vs veh, DFFB / RFU, FOXP1 / Fold change vs veh, FOXP1 / RFU, CARD8 / Fold change vs veh, CARD8 / RFU, STRN3 / Fold change vs veh, STRN3 / RFU, ADK / Fold change vs veh, ADK / RFU, RASSF2 / Fold change vs veh, RASSF2 / RFU, WIPF1 / Fold change vs veh, WIPF1 / RFU, LARP1B / Fold change vs veh, LARP1B / RFU, RASA1 / Fold change vs veh, RASA1 / RFU, RB1 / Fold change vs veh, RB1 / RFU, PPFIA1 / Fold change vs veh, PPFIA1 / RFU, MAT2A / Fold change vs veh, MAT2A / RFU, CCT5 / Fold change vs veh, CCT5 / RFU, WDR92 / Fold change vs veh, WDR92 / RFU, CUX1 / Fold change vs veh, CUX1 / RFU, TTC7A / Fold change vs veh, TTC7A / RFU, TMEM135 / Fold change vs veh, TMEM135 / RFU, DEPTOR / Fold change vs veh, DEPTOR / RFU, CPM / Fold change vs veh, CPM / RFU, DNAJB6 / Fold change vs veh, DNAJB6 / RFU, CACNA2D3 / Fold change vs veh, CACNA2D3 / RFU, DTX4 / Fold change vs veh, DTX4 / RFU, TFCP2 / Fold change vs veh, TFCP2 / RFU, GMCL1 /// GMCL1P1 / Fold change vs veh, GMCL1 /// GMCL1P1 / RFU, AEBP2 / Fold change vs veh, AEBP2 / RFU, SNHG1 /// SNORD22 /// SNORD25 /// SNORD26 /// SNORD27 /// SNORD28 /// SNORD29 /// SNORD31 / Fold change vs veh, SNHG1 /// SNORD22 /// SNORD25 /// SNORD26 /// SNORD27 /// SNORD28 /// SNORD29 /// SNORD31 / Fold change (Aza/veh), C12orf56 (ProbeSet 11735607_a_at) / Fold change (ACY-1035/veh), C12orf56 (ProbeSet 11735607_a_at) / Fold change (Aza/veh), FGFR1OP (ProbeSet 11751329_s_at) / Fold change (ACY-1035/veh), FGFR1OP (ProbeSet 11751329_s_at) / Fold change (Aza/veh), VPS36 (ProbeSet 11739960_a_at) / Fold change (ACY-1035/veh), VPS36 (ProbeSet 11739960_a_at) / RFU SYPL1 (11715823_x_at) / Fold change /veh SYPL1 (11715823_x_at) / RFU IGFBP7 (11715501_s_at) / Fold change /veh IGFBP7 (11715501_s_at) / RFU REEP3 (11722064_at) / Fold change /veh REEP3 (11722064_at) / RFU IGLL1 (11728026_x_at) / Fold change /veh IGLL1 (11728026_x_at): dose or concentration left out as unconfirmed
Settings: MV-4-11 cells, 48 hours

With `Nc1ccc(-c2cccs2)cc1NC(=O)c1ccc2c(c1)cc(C1CC1)n2CCN1CCOCC1` [ACY-1035] the “Fold change /veh HAMP (11756126_x_at)” value was 0.97.
